PMC11003925, “Antimicrobial activity and properties of de novo design of short synthetic lipopeptides” (Folia Microbiologica, 2024)
Values after ≈ are worked out from the molar mass of the structure shown. Where two headings read alike, the source gives them in different places. Residues, ends and D or L forms follow the SMILES beside them. *: point of attachment. Lithocholoyl = C[C@H](CCC(=O)*)[C@H]1CC[C@H]2[C@@H]3CC[C@@H]4C[C@H](O)CC[C@]4(C)[C@H]3CC[C@]12C; Palmitoyl = CCCCCCCCCCCCCCCC(=O)*

Experiments:
[1] = system: A. baumannii DBM 3183; assay: microbe, parasite or virus in culture; assay type: cell-based, Acinetobacter baumannii; details: for IC50: DBM 3183, 25 h
Experimental: (§1) A Bioscreen C automated microbiology growth curve analysis system (Growth Curves, Piscataway, NJ, USA) was used for the quantitative determination of antimicrobial activity (minimal inhibitory concentration, MIC) of PAL/LCA-peptides. Optical density was measured with a wide bandpass filter (wavelength range 420–580 nm) at regular intervals and temperatures. This assay was performed in a special microtiter plate (10 × 10 wells) that allowed the simultaneous testing of a large number of samples against several microorganisms. The total testing volume was 100 µL, obtained by mixing 10 µL of microbial culture with OD600 equal to 0.1 with growth medium and a solution of the tested compounds. The positive controls were vancomycin and tetracycline for Bacillus subtilis (100 µg/mL) for Gram-positive bacteria, kanamycin, and tetracycline for Acinetobacter baumannii (100 µg/mL) for Gram-negative bacteria, and clotrimazole or amphotericin (100 µg/mL) for fungi. The maximal concentration of tested lipoproteins was 1 mg/mL. A pure growth medium was used as the negative control. The measurement period was 25 h. The lowest concentration with a 100% inhibition effect for 24 h of incubation was chosen as the MIC. The antibacterial activity of each compound was expressed as the minimum inhibitory concentration MIC (MIC is the lowest concentration of the compound needed to inhibit the growth of bacterial cells) and IC50 (IC50 is the concentration of the compound needed to inhibit the growth of bacterial cells by 50%).

[2] = system: E. coli DBM 3001; assay type: cell-based; details: for IC50: DBM 3001, 25 h
Experimental: as §1

[3] = system: E. faecalis DBM 3075; assay type: cell-based; details: DBM 3075, 25 h
Experimental: as §1

[4] = system: Ps. aeruginosa DBM 3081; assay type: cell-based, Pseudomonas aeruginosa; details: for IC50: 25 h
Experimental: as §1

[5] = system: B. subtilis DBM 3006; assay type: cell-based, Bacillus subtilis; details: for MIC: DBM 3006, 24 h; for IC50: DBM 3006, 25 h
Experimental: as §1

[6] = system: M. luteus DBM 3053; assay type: cell-based, Micrococcus luteus; details: for MIC: DBM 3053, 24 h; for IC50: DBM 3053, 25 h
Experimental: as §1

[7] = system: Staph. aureus DBM 3002; assay type: cell-based, Staphylococcus aureus; details: for MIC: 24 h; for IC50: 25 h
Experimental: as §1

[8] = system: Staph. aureus MRSA1; assay type: cell-based, Staphylococcus aureus; details: for MIC: 24 h; for IC50: 25 h
Experimental: as §1

[9] = system: C. tropicalis DBM 2166; assay type: cell-based, Candida tropicalis; details: for IC50: DBM 2166, 25 h
Experimental: as §1

[10] = system: plasmid pGreen 0029; assay: DNA binding assay (gel retardation); details: for weight ratio lipopeptide:DNA influencing electrophoretic mobility: 50 ng DNA, 1 h room temperature, 1% agarose gel
Experimental: This assay was performed as described by Park et al. ([1998]), with a few modifications. […] The reaction mixture was incubated at room temperature for 1 h. Subsequently, 4 µL of native loading buffer (10% Ficol, 10 mM Tris–HCl (pH 7.5), 50 mM EDTA, 0.25% bromophenol blue) was added. An aliquot was applied to 1% agarose gel electrophoresis in 0.5xTris borate-EDTA buffer. Circular plasmid DNA was isolated from (Luria–Bertani medium with AMPI in final concentration 100 µg/mL) bacterial strain E. coli DH5α / pBluescriptII KS- that had been grown overnight, and linearization was performed overnight by enzymatic reaction using restriction endonuclease EcoRV at 37 °C. The evaluation was performed by visualizing the DNA with the intercalation dye Midori Green Advanced DNA Stain under UV light. Reduced electrophoretic mobility compared to the control is considered to be evidence of peptide binding to DNA.
According to the previous results, we decided to clarify one of the possible molecular interaction mechanisms, the ability of the studied lipopeptides to bind microbial plasmid DNA. Based on the assumption that pore formation is only one of the influencing factors, which arose from previous results, the effect on one of the possible intracellular targets, DNA, was determined. This determination was carried out on isolated plasmid DNA, specifically on two plasmids, pGreen 0029 and pBluescript II KS- in circular and linearized form.

[11] = system: HEK293T; assay: Cytotoxicity assay (xCELLigence impedance); assay type: cell-based, human; details: 24 h exposure
Experimental: (§2) Experiments were carried out using an xCELLigence RTCA DP Instrument (Roche Diagnostics GmbH, Mannheim, Germany) which was placed into an incubator (37 °C and 5% CO2). Cell proliferation and cytotoxicity experiments were performed using modified 16-well plates (E-plate, Roche Diagnostics GmbH, Mannheim, Germany). Microelectrodes were attached to the bottom of the wells for the impedance-based detection of attachment, spreading, and proliferation of the cells (Stoddart [2011]). This system monitors cellular events in real time without the incorporation of labels by measuring electrical impedance across an interdigitated microelectrode integrated into the bottom of this special tissue culture plate. This impedance measurement improves upon conventional endpoint assays and provides quantitative information about the biological status of the cells, including cell number, adhesion, viability, and morphology. Ninety microliters of cultivation medium was used for the blank sample, and subsequently, 100 µL of HepG2 or HEK293T cell suspension (7 × 10^5 cells/mL) was added and placed into the incubator (37 °C, 95% humidity, 5% CO2). […] Chrysophsin-3 at a concentration of 100 µg/mL was used as a positive control and solvent (deionized water) as a negative control. Subsequent incubation was performed for at least an additional 24 h. The result of the measurement was viability curves. After the measurement, percentages of tissue culture growth inhibition were calculated for all the tested substances, as follows: %inhibition=(1-(ΔϕCIsample)/(ΔϕCIcontrol))·100
(§3) Δ∅CIsample … the difference between the first and last average CI (cell index) values of the tissue culture in the presence of the tested sample.
(§4) Δ∅CIcontrol … the difference between the first and last average CI values of the tissue culture itself.

[12] = system: HepG2; assay: Cytotoxicity assay (xCELLigence impedance); assay type: cell-based, human; details: 24 h exposure
Experimental: as §2, §3, §4

[13] = system: all the tested microorganisms; assay: Microtitre dilution screening at 1 mg/mL; assay type: cell-based; details: c = 1 mg/mL, microtitre dilution method
Experimental: as §1

[14] = system: Staph. aureus; assay: Transmission electron microscopy of treated bacteria; assay type: cell-based, Staphylococcus aureus; details: 1 to 4 h incubation; media with (Mueller–Hinton broth 2) and without nutrients (potassium phosphate buffer)
Experimental: Pictures of damaged bacterial cells were obtained by transmission electron microscopy after 1 to 4 h of incubation. Cells of the Gram-positive bacterial strains were not stained. A JEOL JEM-1010 transmission electron microscope (JEOL, Tokyo, Japan) equipped with a MegaView III CCD camera was used for visualization, and evaluation was performed with the program for image analysis AnalySIS software v. 2.0 (Soft Imaging Systems). The samples were plated on a carbon-coated electron microscopic grid and observed with an accelerating voltage of 80 kV.

[15] = first value of cell 'MIC / IC50', 100% inhibition for 24 h

Compound | IC50 [1] | IC50 [2] | IC50 [3] | IC50 [4] | IC50 [5] | MIC [6] [µg/mL] | IC50 [6] [µg/mL] | IC50 [7] | MIC [8] [µg/mL] | IC50 [8] [µg/mL] | IC50 [9] | % inhibition ([11]; c 50 µg/mL) [%] | % inhibition ([11]; c 100 µg/mL) [%] | % inhibition ([11]; c 200 µg/mL) [%] | % inhibition ([12]; c 50 µg/mL) [%] | % inhibition ([12]; c 100 µg/mL) [%] | growth inhibition / activity in screening [13] | also measured
CCCCCCCCCCCCCCCC(=O)NCC(=O)N[C@H](C(=O)N[C@@H](CC(C)C)C(=O)N[C@@H](CCCCN)C(=O)N[C@@H](CCCNC(=N)N)C(=O)N[C@@H](C)C(N)=O)C(C)C [SHP-3.2, PAL-GVLKRA-NH2] (Palmitoyl-GVLKRA-NH2) | N / > 100.0 µg/mL | 100.0 µg/mL (≈ 114 µM) | N / > 100.0 µg/mL | 100.0 µg/mL (≈ 114 µM) | 50.0 µg/mL (≈ 56.8 µM) | 5.8 (≈ 6.59 µM) | 10.0 (≈ 11.4 µM) | 30.0 µg/mL (≈ 34.1 µM) | 6.8 (≈ 7.73 µM) | 12.5 (≈ 14.2 µM) | N / > 100.0 µg/mL | 4.1 ± 0.6 | 29.6 ± 4.4 | 0.0 ± 0.3 | 17.0 ± 2.6 | 20.7 ± 3.1 | – | MIC ([2]; DBM 3001, 24 h): 68.7 µg/mL (≈ 78 µM); MIC ([4]; 24 h): 83.6 µg/mL (≈ 95 µM); MIC [5]: 41.1 µg/mL (≈ 46.7 µM); MIC [7]: 8.6 µg/mL (≈ 9.77 µM); influence on electrophoretic mobility of plasmid DNA ([10]; circular or linearized forms, tested ratios): did not exhibit any influence; % inhibition ([12]; c 200 µg/mL): 23.2 ± 3.5%
GVLKRA-NH2 [SHP-3.1] | – | – | – | – | – | – | – | – | – | – | – | – | – | – | – | – | low activity | growth inhibition ([5]; c = 1 mg/mL): One hundred percent
LVKRAG-NH2 [SHP-1.1, primary hexapeptide with C-terminal amidation] | – | – | – | – | – | – | – | – | – | – | – | – | – | – | – | – | low activity | growth inhibition ([6]; c = 1 mg/mL): One hundred percent; growth inhibition ([7]; c = 1 mg/mL, Staphylococcus aureus, strain not stated): One hundred percent
CN(C)[C@@H]1C(O)=C(C(N)=O)C(=O)[C@@]2(O)C(O)=C3C(=O)c4c(O)cccc4[C@@](C)(O)[C@H]3C[C@@H]12 [tetracycline, reference compound] | – | – | – | – | – | – | – | – | – | – | – | – | – | – | – | – | – | MIC ([1]; Acinetobacter baumannii, DBM3183, first value of cell 'MIC / IC50', lowest concentration with 100% inhibition for 24 h, 100 µL, OD 420–580 nm): 10 µg/mL (≈ 22.5 µM)
CC(C)C[C@H](NC(=O)[C@@H](NC(=O)CNC(=O)CC[C@@H](C)[C@H]1CC[C@H]2[C@@H]3CC[C@@H]4C[C@H](O)CC[C@]4(C)[C@H]3CC[C@]12C)C(C)C)C(=O)N[C@@H](CCCCN)C(=O)N[C@@H](CCCNC(=N)N)C(=O)N[C@@H](C)C(N)=O [SHP-3.3, LCA-GVLKRA-NH2] (Lithocholoyl-GVLKRA-NH2) | N / > 100.0 µg/mL | N / > 100.0 µg/mL | N / > 100.0 µg/mL | N / > 100.0 µg/mL | 50.0 µg/mL (≈ 50 µM) | 1.5 (≈ 1.5 µM) | 5.0 (≈ 5 µM) | 50.0 µg/mL (≈ 50 µM) | 25.2 (≈ 25.2 µM) | 50.0 (≈ 50 µM) | 30.0 µg/mL (≈ 30 µM) | 7.8 ± 1.2 | 28.5 ± 4.3 | 88.2 ± 13.2 | 4.3 ± 0.6 | 35.6 ± 5.3 | – | MIC [5]: 34.3 µg/mL (≈ 34.3 µM); MIC [7]: 28.8 µg/mL (≈ 28.8 µM); MIC [9, 15]: 10.0 µg/mL (≈ 10 µM); weight ratio lipopeptide:DNA influencing electrophoretic mobility ([10]; circular plasmid): 1.0; weight ratio lipopeptide:DNA influencing electrophoretic mobility ([10]; linearized plasmid): 10.0; morphological effect on bacterial cells (TEM) [14]: damaging cellular envelopes
CCCCCCCCCCCCCCCC(=O)N[C@@H](CC(C)C)C(=O)N[C@H](C(=O)N[C@@H](CCCCN)C(=O)NCC(=O)N[C@@H](C)C(=O)N[C@@H](CCCNC(=N)N)C(N)=O)C(C)C [SHP-2.2, PAL-LVKGAR-NH2] (Palmitoyl-LVKGAR-NH2) | N / > 100.0 µg/mL | N / > 100.0 µg/mL | N / > 100.0 µg/mL | N / > 100.0 µg/mL | N / > 100.0 µg/mL | 7.0 (≈ 7.95 µM) | 10.0 (≈ 11.4 µM) | N / > 100.0 µg/mL | 14.9 (≈ 16.9 µM) | 25.0 (≈ 28.4 µM) | N / > 100.0 µg/mL | 11.1 ± 1.7 | 19.3 ± 2.9 | 28.6 ± 4.3 | 4.3 ± 0.6 | 11.4 ± 1.7 | – | % inhibition ([12]; c 200 µg/mL): 18.5 ± 2.8%
NC[C@H]1O[C@H](O[C@H]2[C@H](O)[C@@H](O[C@H]3O[C@H](CO)[C@@H](O)[C@H](N)[C@H]3O)[C@H](N)C[C@@H]2N)[C@H](O)[C@@H](O)[C@@H]1O [kanamycin, reference compound] | – | – | – | – | – | – | – | – | – | – | – | – | – | – | – | – | – | MIC [4, 15]: 20 µg/mL (≈ 41.3 µM)
LVKGAR-NH2 [SHP-2.1, primary hexapeptide with C-terminal amidation] | – | – | – | – | – | – | – | – | – | – | – | – | – | – | – | – | low activity | –
